Measurements published in ChEMBL document CHEMBL1135204, “Synthesis and muscarinic M2 subtype antagonistic activity of unnatural ent-himbacine and an enantiomeric pair of (2'S,6'R)-diepihimbacine” (Bioorg Med Chem Lett, 2002).
pKi: −log10 of the molar value.

How the values were obtained:
[1] = molecular target: T1, Muscarinic acetylcholine receptor M2 (Rattus norvegicus, UniProt P10980); assay: Binding affinity against the muscarinic M2 (brainstem) subtype was evaluated using [3H]quinuclidinyl benzilate; type: tissue-based
T1 sequence (P10980 whole entry): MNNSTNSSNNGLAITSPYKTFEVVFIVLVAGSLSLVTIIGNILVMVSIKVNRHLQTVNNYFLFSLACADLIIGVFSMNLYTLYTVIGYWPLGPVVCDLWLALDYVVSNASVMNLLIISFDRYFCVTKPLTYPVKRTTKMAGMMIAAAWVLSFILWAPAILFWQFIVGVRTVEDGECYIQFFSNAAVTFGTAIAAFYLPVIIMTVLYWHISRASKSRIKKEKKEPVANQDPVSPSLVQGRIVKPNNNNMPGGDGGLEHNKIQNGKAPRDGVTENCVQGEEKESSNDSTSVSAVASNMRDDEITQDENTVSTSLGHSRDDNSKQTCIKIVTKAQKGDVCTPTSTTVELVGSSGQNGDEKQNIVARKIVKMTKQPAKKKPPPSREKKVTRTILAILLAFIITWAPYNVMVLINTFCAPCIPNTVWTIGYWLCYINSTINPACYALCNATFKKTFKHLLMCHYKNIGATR

[2] = molecular target: T2, Muscarinic acetylcholine receptor M1 (Rattus norvegicus, UniProt P08482); assay: Binding affinity against the muscarinic M1 (cortex) subtype was evaluated using [3H]pirenzepine
T2 sequence (P08482 whole entry): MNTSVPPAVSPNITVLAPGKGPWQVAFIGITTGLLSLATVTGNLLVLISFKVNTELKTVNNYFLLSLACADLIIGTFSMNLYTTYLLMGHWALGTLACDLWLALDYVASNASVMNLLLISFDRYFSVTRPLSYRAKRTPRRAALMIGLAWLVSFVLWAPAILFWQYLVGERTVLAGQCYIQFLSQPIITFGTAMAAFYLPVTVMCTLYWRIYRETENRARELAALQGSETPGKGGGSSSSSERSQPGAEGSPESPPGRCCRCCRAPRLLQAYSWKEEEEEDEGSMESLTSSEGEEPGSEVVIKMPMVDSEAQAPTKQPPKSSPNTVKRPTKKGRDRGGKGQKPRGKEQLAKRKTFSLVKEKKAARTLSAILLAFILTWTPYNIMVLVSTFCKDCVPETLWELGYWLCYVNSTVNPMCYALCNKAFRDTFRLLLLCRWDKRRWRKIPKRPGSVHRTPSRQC

Row | Structure (SMILES) | pKi [1] | pKi [2]
1 | C[C@H]1OC(=O)[C@@H]2C[C@@H]3CCCC[C@H]3[C@H](/C=C/[C@H]3CCC[C@H](C)N3C)[C@H]12 | 6.70 | 6.50
2 | C[C@@H]1OC(=O)[C@H]2C[C@H]3CCCC[C@@H]3[C@@H](/C=C/[C@@H]3CCC[C@@H](C)N3C)[C@@H]12 | 6.70 | 6.50
3 | C[C@@H]1CCC[C@@H](/C=C/[C@H]2[C@@H]3CCCC[C@H]3C[C@H]3C(=O)O[C@H](C)[C@@H]23)N1C (single isomer, unassigned; ent-1) | 6.10 | 6.00
4 | C[C@@H]1OC(=O)[C@H]2C[C@H]3CCCC[C@@H]3[C@@H](/C=C/[C@H]3CCC[C@H](C)N3C)[C@@H]12 [HIMBACINE] | 8.00 | 7.20
